Assays:
Rattus norvegicus [1] = test: AUC (total) in Sprague-Dawley rat assessed as BMS-488043 level at 7.9 mg/kg, po; type: ADME, organism-based, Plasma; parameters: dose 7.9 mg/kg, route oral; details: in vivo
[2] = Tmax in healthy human at 25 mg, po administered with high fat meal; type: ADME, organism-based; details: in vivo
[3] = Cmax in healthy human at 800 mg, po administered with high fat meal; type: ADME, organism-based; parameters: dose 800 mg, route oral; details: in vivo
[4] = Volume of distribution at steady state in cynomolgus monkey at 1.3 mg/kg, iv; type: ADME, organism-based, Macaca fascicularis; parameters: dose 1.3 mg/kg, route intravenous; details: in vivo, read-out: Vdss
[5] = Half life in healthy human at 25 mg, po administered with high fat meal; type: ADME, organism-based; details: in vivo
Cynomolgus monkey [6] = test: Cmax in cynomolgus monkey assessed as BMS-488043 level at 7.1 mg/kg, po; type: ADME, organism-based, Macaca fascicularis; parameters: dose 7.1 mg/kg, route oral; details: in vivo
[7] = Clearance in Sprague-Dawley rat at 1.4 mg/kg, iv; type: ADME, organism-based; parameters: dose 1.4 mg/kg, route intravenous; details: in vivo
[8] = Mean residence time in cynomolgus monkey at 1.3 mg/kg, iv; type: ADME, organism-based, Macaca fascicularis; parameters: dose 1.3 mg/kg, route intravenous; details: in vivo
[9] = Aqueous solubility of compound at pH 1.4 after 18 to 24 hrs by RP-HPLC analysis; type: physicochemical
[10] = Tmax in healthy human at 800 mg, po administered with high fat meal; type: ADME, organism-based; details: in vivo
[11] = Clearance in beagle dog at 1.2 mg/kg, iv; type: ADME, organism-based, Canis lupus familiaris; parameters: dose 1.2 mg/kg, route intravenous; details: in vivo
[12] = Half life in healthy human at 100 mg, po administered with high fat meal; type: ADME, organism-based; details: in vivo
Cynomolgus monkey [13] = test: Half life in cynomolgus monkey assessed as BMS-488043 level at 7.1 mg/kg, po; type: ADME, organism-based, Macaca fascicularis; parameters: dose 7.1 mg/kg, route oral; details: in vivo
[14] = Aqueous solubility of compound at pH 8.9; type: physicochemical
[15] = Cmax in healthy human at 50 mg, po administered with high fat meal; type: ADME, organism-based; parameters: dose 50 mg, route oral; details: in vivo
[16] = AUC (infinity) in healthy human at 400 mg, po administered with high fat meal; type: ADME, organism-based; parameters: dose 400 mg, time infinity, route oral; details: plasma
[17] = Volume of distribution at steady state in Sprague-Dawley rat at 1.4 mg/kg, iv; type: ADME, organism-based; parameters: dose 1.4 mg/kg, route intravenous; details: in vivo, read-out: Vdss
[18] = Cmax in healthy human at 200 mg, po administered with high fat meal; type: ADME, organism-based; parameters: dose 200 mg, route oral; details: in vivo
Rattus norvegicus [19] = test: Half life in Sprague-Dawley rat assessed as BMS-488043 level at 7.9 mg/kg, po; type: ADME, organism-based; parameters: dose 7.9 mg/kg, route oral; details: in vivo
Cynomolgus monkey [20] = test: Tmax in cynomolgus monkey assessed as BMS-488043 level at 7.1 mg/kg, po; type: ADME, organism-based, Macaca fascicularis; parameters: dose 7.1 mg/kg, route oral; details: in vivo
Plasma [21] = test: Plasma concentration in healthy human at 25 mg, po administered with high fat meal measured after 12 hrs; type: ADME, organism-based; details: in vivo, BLD = below limit of detection
[22] = Half life in healthy human at 800 mg, po administered with high fat meal; type: ADME, organism-based; details: in vivo
[23] = Clearance in cynomolgus monkey at 1.3 mg/kg, iv; type: ADME, organism-based, Macaca fascicularis; parameters: dose 1.3 mg/kg, route intravenous; details: in vivo
[24] = Mean residence time in Sprague-Dawley rat at 1.4 mg/kg, iv; type: ADME, organism-based; parameters: dose 1.4 mg/kg, route intravenous; details: in vivo
Rattus norvegicus [25] = test: Tmax in Sprague-Dawley rat assessed as BMS-488043 level at 7.9 mg/kg, po; type: ADME, organism-based; parameters: dose 7.9 mg/kg, route oral; details: in vivo
Cynomolgus monkey [26] = test: AUC (total) in cynomolgus monkey assessed as BMS-488043 level at 7.1 mg/kg, po; type: ADME, organism-based, Macaca fascicularis, Plasma; parameters: dose 7.1 mg/kg, route oral; details: in vivo
[27] = Half life in cynomolgus monkey at 1.3 mg/kg, iv; type: ADME, organism-based, Macaca fascicularis; parameters: dose 1.3 mg/kg, route intravenous; details: in vivo
Rattus norvegicus [28] = test: Absolute oral bioavailability in Sprague-Dawley rat assessed as BMS-488043 level at 7.9 mg/kg; type: ADME, organism-based; details: in vivo
Canis familiaris [29] = test: Half life in beagle dog assessed as BMS-488043 level at 6.6 mg/kg, po; type: ADME, organism-based, Canis lupus familiaris; parameters: dose 6.6 mg/kg, route oral; details: in vivo
[30] = AUC (infinity) in healthy human at 800 mg, po administered with high fat meal; type: ADME, organism-based; parameters: dose 800 mg, time infinity, route oral; details: plasma
[31] = Tmax in healthy human at 100 mg, po administered with high fat meal; type: ADME, organism-based; details: in vivo
[32] = Mean residence time in beagle dog at 1.2 mg/kg, iv; type: ADME, organism-based, Canis lupus familiaris; parameters: dose 1.2 mg/kg, route intravenous; details: in vivo
Canis familiaris [33] = test: Cmax in beagle dog assessed as BMS-488043 level at 6.6 mg/kg, po; type: ADME, organism-based, Canis lupus familiaris; parameters: dose 6.6 mg/kg, route oral; details: in vivo
Canis familiaris [34] = test: Absolute oral bioavailability in beagle dog assessed as BMS-488043 level at 6.6 mg/kg; type: ADME, organism-based, Canis lupus familiaris; details: in vivo
[35] = Cmax in healthy human at 25 mg, po administered with high fat meal; type: ADME, organism-based; parameters: dose 25 mg, route oral; details: in vivo
[36] = AUC (infinity) in healthy human at 50 mg, po administered with high fat meal; type: ADME, organism-based; parameters: dose 50 mg, time infinity, route oral; details: plasma
[37] = Tmax in healthy human at 50 mg, po administered with high fat meal; type: ADME, organism-based; details: in vivo
[38] = Half life in beagle dog at 1.2 mg/kg, iv; type: ADME, organism-based, Canis lupus familiaris; parameters: dose 1.2 mg/kg, route intravenous; details: in vivo
[39] = Plasma concentration in healthy human at 200 mg, po administered with high fat meal measured after 12 hrs; type: ADME, organism-based
[40] = Plasma concentration in healthy human at 100 mg, po administered with high fat meal measured after 12 hrs; type: ADME, organism-based
Canis familiaris [41] = test: Tmax in beagle dog assessed as BMS-488043 level at 6.6 mg/kg, po; type: ADME, organism-based, Canis lupus familiaris; parameters: dose 6.6 mg/kg, route oral; details: in vivo
Rattus norvegicus [42] = test: Cmax in Sprague-Dawley rat assessed as BMS-488043 level at 7.9 mg/kg, po; type: ADME, organism-based; parameters: dose 7.9 mg/kg, route oral; details: in vivo
[43] = Half life in healthy human at 200 mg, po administered with high fat meal; type: ADME, organism-based; details: in vivo
[44] = Aqueous solubility of compound at pH 5.4; type: physicochemical
Cynomolgus monkey [45] = test: Absolute oral bioavailability in cynomolgus monkey assessed as BMS-488043 level at 7.1 mg/kg; type: ADME, organism-based, Macaca fascicularis; details: in vivo
[46] = Volume of distribution at steady state in beagle dog at 1.2 mg/kg, iv; type: ADME, organism-based, Canis lupus familiaris; parameters: dose 1.2 mg/kg, route intravenous; details: in vivo, read-out: Vdss
[47] = Half life in Sprague-Dawley rat at 1.4 mg/kg, iv; type: ADME, organism-based; parameters: dose 1.4 mg/kg, route intravenous; details: in vivo
[48] = Lipophilicity, log D of compound in octanol-PBS mixture at pH 6.5 by HPLC-UV analysis; type: physicochemical
[49] = AUC (infinity) in healthy human at 25 mg, po administered with high fat meal; type: ADME, organism-based; parameters: dose 25 mg, time infinity, route oral; details: plasma
[50] = Cmax in healthy human at 100 mg, po administered with high fat meal; type: ADME, organism-based; parameters: dose 100 mg, route oral; details: in vivo
Plasma [51] = test: Plasma concentration in healthy human at 50 mg, po administered with high fat meal measured after 12 hrs; type: ADME, organism-based; details: in vivo, BLD = below limit of detection
[52] = AUC (infinity) in healthy human at 200 mg, po administered with high fat meal; type: ADME, organism-based; parameters: dose 200 mg, route oral, time infinity; details: plasma
[53] = Half life in healthy human at 50 mg, po administered with high fat meal; type: ADME, organism-based; details: in vivo
[54] = Tmax in healthy human at 200 mg, po administered with high fat meal; type: ADME, organism-based; details: in vivo
[55] = Half life in healthy human at 400 mg, po administered with high fat meal; type: ADME, organism-based; details: in vivo
[56] = Plasma concentration in healthy human at 400 mg, po administered with high fat meal measured after 12 hrs; type: ADME, organism-based
Canis familiaris [57] = test: AUC (total) in beagle dog assessed as BMS-488043 level at 6.6 mg/kg, po; type: ADME, organism-based, Canis lupus familiaris, Plasma; parameters: dose 6.6 mg/kg, route oral; details: in vivo
[58] = Dissociation constant, pKa of compound; type: physicochemical
[59] = Tmax in healthy human at 400 mg, po administered with high fat meal; type: ADME, organism-based; details: in vivo
[60] = AUC (infinity) in healthy human at 100 mg, po administered with high fat meal; type: ADME, organism-based; parameters: dose 100 mg, route oral, time infinity; details: plasma
[61] = Cmax in healthy human at 400 mg, po administered with high fat meal; type: ADME, organism-based; parameters: dose 400 mg, route oral; details: in vivo
[62] = Plasma concentration in healthy human at 800 mg, po administered with high fat meal measured after 12 hrs; type: ADME, organism-based

AUC (Rattus norvegicus [1]): 13.168 µM·h
Tmax [2]: 30 min
Cmax [3]: 26800 ng/mL
Vd [4]: 0.048 L/kg
half-life [5]: 60 min
Cmax (Cynomolgus monkey [6]): 16.4 µM
clearance [7]: 14 mL/min/kg
MRT [8]: 10.8 min
solubility [9]: 220 µg/mL
Tmax [10]: 60 min
clearance [11]: 70 mL/min/kg
half-life [12]: 114 min
t1/2 (Cynomolgus monkey [13]): 288 min
solubility [14]: > 12000 µg/mL
Cmax [15]: 1370 ng/mL
AUC(0-inf) [16]: 26200 ng·h/mL
Vd [17]: 0.12 L/kg
Cmax [18]: 8420 ng/mL
t1/2 (Rattus norvegicus [19]): 90 min
Tmax (Cynomolgus monkey [20]): 49.8 min
Cp (Plasma [21]): BLD
half-life [22]: 660 min
clearance [23]: 4.4 mL/min/kg
MRT [24]: 8.4 min
Tmax (Rattus norvegicus [25]): 49.8 min
AUC (Cynomolgus monkey [26]): 34.183 µM·h
half-life [27]: 60 min
F (Rattus norvegicus [28]): 62%
t1/2 (Canis familiaris [29]): 246 min
AUC(0-inf) [30]: 64100 ng·h/mL
Tmax [31]: 30 min
MRT [32]: 4.2 min
Cmax (Canis familiaris [33]): 14 µM
F (Canis familiaris [34]): 93%
Cmax [35]: 784 ng/mL
AUC(0-inf) [36]: 2150 ng·h/mL
Tmax [37]: 30 min
half-life [38]: 9 min
concentration at 12 h [39]: 33 ng/mL
concentration at 12 h [40]: 12 ng/mL
Tmax (Canis familiaris [41]): 15 min
Cmax (Rattus norvegicus [42]): 3.94 µM
half-life [43]: 402 min
solubility [44]: > 12000 µg/mL
F (Cynomolgus monkey [45]): 67%
Vd [46]: 0.3 L/kg
half-life [47]: 9.6 min
logD [48]: < -1
AUC(0-inf) [49]: 1160 ng·h/mL
Cmax [50]: 3650 ng/mL
Cp (Plasma [51]): BLD
AUC(0-inf) [52]: 14200 ng·h/mL
half-life [53]: 84 min
Tmax [54]: 30 min
half-life [55]: 780 min
concentration at 12 h [56]: 59 ng/mL
AUC (Canis familiaris [57]): 82.844 µM·h
pKa [58]: 2.2
Tmax [59]: 37.8 min
AUC(0-inf) [60]: 5730 ng·h/mL
Cmax [61]: 12900 ng/mL
concentration at 12 h [62]: 150 ng/mL
Compound: COc1cnc(OC)c2c1c(C(=O)C(=O)N1CCN(C(=O)c3ccccc3)CC1)cn2COP(=O)(O)O.NCCCC[C@H](N)C(=O)O

Source: ChEMBL document CHEMBL2163239, “Inhibitors of human immunodeficiency virus type 1 (HIV-1) attachment 6. Preclinical and human pharmacokinetic profiling of BMS-663749, a phosphonooxymethyl prodrug of the HIV-1 attachment inhibitor 2-(4-benzoyl-1-piperazinyl)-1-(4,7-dimethoxy-1H-pyrrolo[2,3-c]pyridin-3-yl)-2-oxoethanone …” (J Med Chem, 2012)
